Assay results published in PMC6018746, “Activation of the p53-MDM4 regulatory axis defines the anti-tumour response to PRMT5 inhibition through its role in regulating cellular splicing” (Scientific Reports, 2018).
“And” between values parts separate entries of the source, which are not always exact repeats. Identical values can stand only once. Like-named read-outs stand apart in the source and are kept apart here.

Tested on: panel of hematologic and solid cancer lines
Test: 6-day in vitro growth/death assay
Assay type: cell-based, human
Conditions: for IC50: read-out: gIC50
Protocol: To further develop these molecules and to guide clinical strategy, it was necessary to understand sensitivity in preclinical models by assessing the anti-tumour activity of the PRMT5 inhibitors in various cancers.
Cell lines were obtained from ATCC or DSMZ and were grown in recommended medium, which was most frequently RPMI-1640 containing 10% FBS. Cell line proliferation assays, Western blotting, qRT-PCR, and cell cycle analyses were performed as described previously[27],[28]. Antibody and gene expression reagents are as described in Supplementary Table 16. All studies were conducted in accordance with the GSK Policy on the Care, Welfare and Treatment of Laboratory Animals and were reviewed by the Institutional Animal Care and Use Committee either at GSK or by the ethical review process at the institution where the work was performed. Detailed descriptions of all methods can be found in the Supplemental Materials.

Compound: CC(=O)N1CCC(Nc2cc(C(=O)NC[C@H](O)CN3CCc4ccccc4C3)ncn2)CC1 [GSK3326595]
- IC50 5637: 69 nM
- IC50 (HCC70): 130 nM
- IC50 (HCC1143): 246 nM
- IC50 (HCC1806): 98 nM
- IC50 (Homo sapiens, 5637): 69.3 nM
- IC50 (Homo sapiens, HCC70, HCC70): 130 nM
- IC50 (Homo sapiens, HCC1143, HCC1143): 246 nM
- IC50 (Homo sapiens, HCC1806, HCC1806): 97.6 nM
- IC50 (Homo sapiens, HCC1954, HCC1954): 79.2 nM
- IC50 (Homo sapiens, HT-1376, HT-1376): 17600 nM
- IC50 (Homo sapiens, J82, J82): 29300 nM
- IC50 (Homo sapiens, JM1, JM1): 79 nM
- IC50 (Homo sapiens, KMS-11, KMS-11): 66.5 nM
- IC50 (Homo sapiens, LN-229, LN-229): 254 nM
- IC50 (Homo sapiens, LP-1, LP1): 1940 nM
- IC50 (Homo sapiens, MCF7, MCF-7): 61.7 nM
- IC50 (Homo sapiens, MDA-MB-231, MDA-MB-231): 544 nM
- IC50 (Homo sapiens, MDA-MB-453, MDA-MB-453): 28.7 nM
- IC50 (Homo sapiens, MDA-MB-468, MDA-MB-468): 56.5 nM
- IC50 (Homo sapiens, MINO): 130 nM
- IC50 (Homo sapiens, Maver1, MAVER-1): 84.9 nM
- IC50 (Homo sapiens, NCI-H526, NCI-H526): 275 nM
- IC50 (Homo sapiens, NCI-H526-R): 344 nM
- IC50 (Homo sapiens, NU-DHL-1, NU-DHL-1): 333 nM
- IC50 (Homo sapiens, NU-DUL-1, NU-DUL-1): 333 nM
- IC50 (Homo sapiens, PER-403, PER-403): 38.3 nM
- IC50 (Homo sapiens, PER-624): 524 nM
- IC50 (Homo sapiens, PER-704): 658 nM
- IC50 (Homo sapiens, Pfeiffer): 421 nM
- IC50 (Homo sapiens, RCK8, RCK8): 529 nM
- IC50 (Homo sapiens, RL): 11.8 nM
- IC50 (Homo sapiens, RPMI-8226, RPMI-8226): 21.7 nM
- IC50 (Homo sapiens, RPMI-8226-DOX): 29300 nM
- IC50 (Homo sapiens, RPMI-8226-LR5): 286 nM
- IC50 (Homo sapiens, SCaBER): 198 nM
- IC50 (Homo sapiens, SF-295, SF295): 24700 nM
- IC50 (Homo sapiens, SF-539, SF539): 60.9 nM
- IC50 (Homo sapiens, SK-BR-3, SK-BR-3): 73.1 nM
- IC50 (Homo sapiens, SU-DHL10, SU-DHL-10): 36.7 nM
- IC50 (Homo sapiens, SU-DHL-2, SU-DHL-2): 34.1 nM
- IC50 (Homo sapiens, SU-DHL-4, SU-DHL-4): 492 nM
- IC50 (Homo sapiens, SU-DHL-5, SU-DHL-5): 28.3 nM
- IC50 (Homo sapiens, SU-DHL-6, SU-DHL-6): 3.9 nM
- IC50 (Homo sapiens, SU-DHL-8, SU-DHL-8): 52.5 nM
- IC50 (Homo sapiens, SU-DHL-16, SU-DHL-16): 98.9 nM
- IC50 (Homo sapiens, SW780, SW-780): 290 nM
- IC50 (Homo sapiens, T-24, T24): 765 nM
- IC50 (Homo sapiens, U2932, U2932): 52.5 nM
- IC50 (Homo sapiens, U-87 MG): 39.6 nM
- IC50 (Homo sapiens, U-2940, U2940): 14800 nM
- IC50 (Homo sapiens, UMUC3, UM-UC-3): 29300 nM
- IC50 (Homo sapiens, WSU-NHL): 8.4 nM
- IC50 (Homo sapiens, WSUDLCL2, WSU-DLCL2): 81.7 nM
- IC50 (Homo sapiens, ZR-75-1, ZR-75-1): 11000 nM
- IC50 (J82): 29300 nM
- IC50 (KMS-11): 66 nM
- IC50 (LN-229): 254 nM
- IC50 (LP1): 1940 nM
- IC50 (MAVER-1): 85 nM
- IC50 (MDA-MB-231): 544 nM
- IC50 (MDA-MB-453): 29 nM
- IC50 (MDA-MB-468): 57 nM
- IC50 (MINO): 130 nM and > 100 nM
- IC50 (NCI-H526-R): 344 nM
- IC50 (NCI-H526): 275 nM
- IC50 (PER-403): 38 nM
- IC50 (PER-624): 524 nM
- IC50 (PER-704): 658 nM
- IC50 (RCK8): 529 nM
- IC50 (RL): 14 nM
- IC50 (SF295): 24700 nM
- IC50 (SF539): 61 nM
- IC50 (SK-BR-3): 73 nM
- IC50 (SU-DHL-2): 28 nM
- IC50 (SU-DHL-4): 492 nM
- IC50 (SU-DHL-6): 4 nM
- IC50 (SU-DHL-8): 53 nM
- IC50 (SU-DHL-10): 54 nM
- IC50 (SU-DHL-16): 99 nM
- IC50 (ScaBER): 198 nM
- IC50 (T24): 765 nM
- IC50 (U2932): 53 nM
- IC50 (U2940): 10200 nM
- IC50 (U-87MG): 40 nM
- IC50 (WSU-DLCL2): 82 nM
- IC50 (WSU-NHL): 8 nM
- gIC100 (Z-138): 80.7 nM
